# In PubChem BioAssay (NCI):
#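 Five concentrations, 48 hours, 96-well plates. The concentration for 50% growth inhibition is given as GI50. TGI marks complete inhibition of growth.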
# Assays:
# Experiment in all cases: NCI tumour cell line growth inhibition, 48 h
# [1] = test system: 786-0 renal
# [2] = test system: A498 renal
# [3] = test system: A549 NSCLC
# [4] = test system: ACHN renal
# [5] = test system: BT-549 breast
# [6] = test system: CAKI-1 renal
# [7] = test system: CCRF-CEM leukemia
# [8] = test system: COLO 205 colon
# [9] = test system: DU-145 prostate
# [10] = test system: EKVX NSCLC
# [11] = test system: HCC-2998 colon
# [12] = test system: HCT-116 colon
# [13] = test system: HCT-15 colon
# [14] = test system: HL-60(TB) leukemia
# [15] = test system: HOP-62 NSCLC
# [16] = test system: HOP-92 NSCLC
# [17] = test system: HS 578T breast
# [18] = test system: HT29 colon
# [19] = test system: IGROV1 ovarian
# [20] = test system: K-562 leukemia
# [21] = test system: KM12 colon
# [22] = test system: M14 melanoma
# [23] = test system: MALME-3M melanoma
# [24] = test system: MCF7 breast
# [25] = test system: MDA-MB-231 breast
# [26] = test system: MDA-MB-435
# [27] = test system: MOLT-4 leukemia
# [28] = test system: NCI-H226 lung
# [29] = test system: NCI-H460 lung
# [30] = test system: NCI-H522 lung
# [31] = test system: NCI/ADR-RES ovarian
# [32] = test system: OVCAR-3 ovarian
# [33] = test system: OVCAR-4 ovarian
# [34] = test system: OVCAR-5 ovarian
# [35] = test system: OVCAR-8 ovarian
# [36] = test system: PC-3 prostate
# [37] = test system: RPMI-8226 leukemia
# [38] = test system: RXF 393 renal
# [39] = test system: SF-268 CNS
# [40] = test system: SF-295 CNS
# [41] = test system: SF-539 CNS
# [42] = test system: SK-MEL-2 melanoma
# [43] = test system: SK-MEL-28 melanoma
# [44] = test system: SK-MEL-5 melanoma
# [45] = test system: SK-OV-3 ovarian
# [46] = test system: SN12C renal
# [47] = test system: SNB-19 CNS
# [48] = test system: SNB-75 CNS
# [49] = test system: SR leukemia
# [50] = test system: SW-620 colon
# [51] = test system: T-47D breast
# [52] = test system: TK-10 renal
# [53] = test system: U251 CNS
# [54] = test system: UACC-257 melanoma
# [55] = test system: UACC-62 melanoma
# [56] = test system: UO-31 renal
# [57] = test system: LOX IMVI melanoma
# [58] = test system: NCI-H23 lung
smiles,measurement,setting,value
Fc1ccc(-c2nc(C(Cl)Cl)nc3cc(-c4ccccc4)nn23)cc1,GI50,[1],> 100 µM
same,TGI,[1],> 100 µM
same,GI50,[2],> 100 µM
same,TGI,[2],> 100 µM
same,GI50,[3],3.72 µM
same,TGI,[3],33.8 µM
same,GI50,[4],3.58 µM
same,TGI,[4],> 100 µM
same,GI50,[5],> 100 µM
same,TGI,[5],> 100 µM
same,GI50,[6],16 µM
same,TGI,[6],> 100 µM
same,GI50,[7],> 100 µM
same,TGI,[7],> 100 µM
same,GI50,[8],3.67 µM
same,TGI,[8],21.9 µM
same,GI50,[9],2.46 µM
same,TGI,[9],6.55 µM
same,GI50,[10],7.79 µM
same,TGI,[10],> 100 µM
same,GI50,[11],2.27 µM
same,TGI,[11],6.21 µM
same,GI50,[12],38.5 µM
same,TGI,[12],> 100 µM
same,GI50,[13],4.64 µM
same,TGI,[13],> 100 µM
same,GI50,[14],3.79 µM
same,TGI,[14],> 100 µM
same,GI50,[15],12.1 µM
same,TGI,[15],> 100 µM
same,GI50,[16],> 100 µM
same,TGI,[16],> 100 µM
same,GI50,[17],> 100 µM
same,TGI,[17],> 100 µM
same,GI50,[18],3.92 µM
same,TGI,[18],> 100 µM
same,GI50,[19],> 100 µM
same,TGI,[19],> 100 µM
same,GI50,[20],15.9 µM
same,TGI,[20],> 100 µM
same,GI50,[21],15.9 µM
same,TGI,[21],> 100 µM
same,GI50,[22],> 100 µM
same,TGI,[22],> 100 µM
same,GI50,[23],> 100 µM
same,TGI,[23],> 100 µM
same,GI50,[24],7.36 µM
same,TGI,[24],> 100 µM
same,GI50,[25],35.4 µM
same,TGI,[25],> 100 µM
same,GI50,[26],> 100 µM
same,TGI,[26],> 100 µM
same,GI50,[27],7.81 µM
same,TGI,[27],> 100 µM
same,GI50,[28],> 100 µM
same,TGI,[28],> 100 µM
same,GI50,[29],3.63 µM
same,TGI,[29],> 100 µM
same,GI50,[30],7.36 µM
same,TGI,[30],> 100 µM
same,GI50,[31],6.48 µM
same,TGI,[31],> 100 µM
same,GI50,[32],6.13 µM
same,TGI,[32],> 100 µM
same,GI50,[33],7.21 µM
same,TGI,[33],> 100 µM
same,GI50,[34],22.3 µM
same,TGI,[34],> 100 µM
same,GI50,[35],7.33 µM
same,TGI,[35],> 100 µM
same,GI50,[36],> 100 µM
same,TGI,[36],> 100 µM
same,GI50,[37],> 100 µM
same,TGI,[37],> 100 µM
same,GI50,[38],3.79 µM
same,TGI,[38],18.5 µM
same,GI50,[39],> 100 µM
same,TGI,[39],> 100 µM
same,GI50,[40],28.2 µM
same,TGI,[40],> 100 µM
same,GI50,[41],> 100 µM
same,TGI,[41],> 100 µM
same,GI50,[42],> 100 µM
same,TGI,[42],> 100 µM
same,GI50,[43],> 100 µM
same,TGI,[43],> 100 µM
same,GI50,[44],> 100 µM
same,TGI,[44],> 100 µM
same,GI50,[45],10.7 µM
same,TGI,[45],> 100 µM
same,GI50,[46],> 100 µM
same,TGI,[46],> 100 µM
same,GI50,[47],10.5 µM
same,TGI,[47],> 100 µM
same,GI50,[48],> 100 µM
same,TGI,[48],> 100 µM
same,GI50,[49],5.23 µM
same,TGI,[49],> 100 µM
same,GI50,[50],5.05 µM
same,TGI,[50],> 100 µM
same,GI50,[51],> 100 µM
same,TGI,[51],> 100 µM
same,GI50,[52],> 100 µM
same,TGI,[52],> 100 µM
same,GI50,[53],5.79 µM
same,TGI,[53],> 100 µM
same,GI50,[54],> 100 µM
same,TGI,[54],> 100 µM
same,GI50,[55],> 100 µM
same,TGI,[55],> 100 µM
same,GI50,[56],> 100 µM
same,TGI,[56],> 100 µM
Cc1ccc(C(=O)Nc2ccc(CNCCN3CCOCC3)c(C(F)(F)F)c2)cc1C#Cc1cnc2cccnn12,GI50,[1],1.21 µM
same,TGI,[1],3.29 µM
same,GI50,[2],1.94 µM
same,TGI,[2],4.28 µM
same,GI50,[3],2.54 µM
same,TGI,[3],10.6 µM
same,GI50,[4],2.82 µM
same,TGI,[4],9.55 µM
same,GI50,[5],2.27 µM
same,TGI,[5],4.56 µM
same,GI50,[6],2.9 µM
same,TGI,[6],7.23 µM
same,GI50,[7],1.55 µM
same,TGI,[7],8.23 µM
same,GI50,[8],1.23 µM
same,TGI,[8],3.82 µM
same,GI50,[9],2.92 µM
same,TGI,[9],8.19 µM
same,GI50,[10],3.12 µM
same,TGI,[10],10.7 µM
same,GI50,[11],1.55 µM
same,TGI,[11],3.24 µM
same,GI50,[12],0.5 µM
same,TGI,[12],2.43 µM
same,GI50,[13],0.925 µM
same,TGI,[13],4.9 µM
same,GI50,[14],0.145 µM
same,TGI,[14],2.6 µM
same,GI50,[15],2.16 µM
same,TGI,[15],6.55 µM
same,GI50,[16],0.761 µM
same,TGI,[16],3.12 µM
same,GI50,[17],1.81 µM
same,TGI,[17],5.24 µM
same,GI50,[18],0.794 µM
same,TGI,[18],5.99 µM
same,GI50,[19],1.27 µM
same,TGI,[19],3.43 µM
same,TGI,[20],11.6 µM
same,GI50,[21],0.393 µM
same,TGI,[21],2.68 µM
same,GI50,[57],0.515 µM
same,TGI,[57],1.87 µM
same,GI50,[23],0.229 µM
same,TGI,[23],1.87 µM
same,GI50,[24],1.42 µM
same,TGI,[24],3.2 µM
same,GI50,[25],1.15 µM
same,TGI,[25],3.19 µM
same,GI50,[26],0.746 µM
same,TGI,[26],2.32 µM
same,GI50,[27],1.31 µM
same,TGI,[27],5.37 µM
same,GI50,[28],1.66 µM
same,TGI,[28],7.59 µM
same,GI50,[58],0.89 µM
same,TGI,[58],3.03 µM
same,GI50,[29],1.76 µM
same,TGI,[29],3.9 µM
same,GI50,[30],1.99 µM
same,TGI,[30],5.22 µM
same,GI50,[31],2.17 µM
same,TGI,[31],7.47 µM
same,GI50,[32],2.39 µM
same,TGI,[32],6.24 µM
same,GI50,[33],2.52 µM
same,TGI,[33],14.5 µM
same,GI50,[34],1.85 µM
same,TGI,[34],8.17 µM
same,GI50,[35],3.09 µM
same,TGI,[35],10.8 µM
same,GI50,[36],2.07 µM
same,TGI,[36],6.17 µM
same,GI50,[37],1.42 µM
same,TGI,[37],3.83 µM
same,GI50,[38],1.63 µM
same,TGI,[38],3.21 µM
same,GI50,[39],2.46 µM
same,TGI,[39],7.04 µM
same,GI50,[40],1.62 µM
same,TGI,[40],3.57 µM
same,GI50,[41],1.32 µM
same,TGI,[41],2.67 µM
same,GI50,[42],1.27 µM
same,TGI,[42],3.44 µM
same,GI50,[43],1.22 µM
same,TGI,[43],2.74 µM
same,GI50,[44],1.45 µM
same,TGI,[44],2.81 µM
same,GI50,[45],3.91 µM
same,TGI,[45],13.6 µM
same,GI50,[46],1.75 µM
same,TGI,[46],5.68 µM
same,GI50,[47],3.11 µM
same,TGI,[47],9.73 µM
same,GI50,[48],0.0644 µM
same,TGI,[48],0.778 µM
same,GI50,[49],1.4 µM
same,TGI,[49],6.64 µM
same,GI50,[50],1.66 µM
same,TGI,[50],10.5 µM
same,GI50,[51],2.37 µM
same,TGI,[51],6.73 µM
same,GI50,[52],2.61 µM
same,TGI,[52],7.51 µM
same,GI50,[53],1.84 µM
same,TGI,[53],4.65 µM
same,GI50,[54],1.69 µM
same,TGI,[54],3.57 µM
same,GI50,[55],1.45 µM
same,TGI,[55],3.43 µM
same,GI50,[56],1.45 µM
same,TGI,[56],3.47 µM
